Measurements reported in patent US5635483A, “Tumor inhibiting tetrapeptide bearing modified phenethyl amides” (priority 1992, dated 1997).

Experiments:
Format in all cases: cell-based
SK-MEL-3 = assay: NCI human tumor cell line screen, melanoma SK-MEL-3; conditions: for GI-50 / TGI: Human cancer cell; for LC-50: Human cancer cells
Source text: (§1) Current research in the control of cancer in the United States is coordinated by the National Cancer Institute (NCI). To determine whether a substance has anti-cancer properties, the NCI has established a systematic protocol. This protocol, which involves the testing of a substance against a standard cell line panel containing 60 human tumor cell lines, has been verified and has been accepted in scientific circles. The protocol, and the established statistical means for analyzing the results obtained by the standardized testing are fully described in the literature. See: Body, Dr. Michael R., Principles & Practice of Oncology, PPO Updates, Volume 3, Number 10, October 1989, for an in depth description of the testing protocol; and Paull, K. D., "Display and Analysis of Patterns of Differential Activity of Drugs Against Human Tumor Cell Lines; Development of Mean Graph and COMPARE Algorithm", Journal of the National Cancer Institute Reports, Vol. 81, No. 14, Page 1088, Jul. 14, 1989 for a description of the methods of statistical analysis. Both of these references are incorporated herein by this reference thereto.
(§2) The extraordinary inhibition of cell growth shown by the tetrapeptide 6a-k against six major types of human cancer and against the murine P388 lymphocytic leukemia cell line has been presented in Table 1-2, below.

NCI-460 = assay: NCI human tumor cell line screen, Lung-NSC NCI-460; conditions: for GI-50 / TGI: Human cancer cell; for LC-50: Human cancer cells
Source text: as §1, with “This protocol, which involves the testing of a substance against a standard cell line panel containing 60 human tumor cell lines, has been verified and has been accepted in scientific circles.” left out

SF-295 = assay: NCI human tumor cell line screen, CNS SF-295; conditions: for GI-50 / TGI: Human cancer cell; for LC-50: Human cancer cells
Source text: as §1, §2

A498 = assay: NCI human tumor cell line screen, renal A498; conditions: for GI-50 / TGI: Human cancer cell; for LC-50: Human cancer cells
Source text: as §1, with “This protocol, which involves the testing of a substance against a standard cell line panel containing 60 human tumor cell lines, has been verified and has been accepted in scientific circles.” left out

OVCAR-3 = assay: NCI human tumor cell line screen, ovarian OVCAR-3; conditions: for GI-50 / TGI: Human cancer cell; for LC-50: Human cancer cells
Source text: as §1, with “This protocol, which involves the testing of a substance against a standard cell line panel containing 60 human tumor cell lines, has been verified and has been accepted in scientific circles.” left out

KM20L2 = assay: NCI human tumor cell line screen, colon KM20L2; conditions: for GI-50 / TGI: Human cancer cell; for LC-50: Human cancer cells
Source text: as §1, with “This protocol, which involves the testing of a substance against a standard cell line panel containing 60 human tumor cell lines, has been verified and has been accepted in scientific circles.” left out

P-388 = assay: Murine P388 lymphocytic leukemia cell growth inhibition; conditions: Mouse leukemia cell P-388
Source text: as §2

human cancer cell line = assay: Human cancer cell line activity compared with Dolastatin 10; conditions: R-dolaphenine (Doe) substitution
Source text: A series of Dolastatin 10 chiral isomers has been documented (See: Pettit et al., J. Med. Chem., 1990, 33, 3132). More recently these experiments were extended to synthesis of R-Doe-isodolastatin 10. […] The amide molecular length was then examined, starting with benzylamine, phenethylamine and 3-phenyl-1-propylamine. Also studied was a systematic series of modifications at the dolaphenine position introducing a substituted nitrogen instead of a phenyl ring.

Substance	GI-50 (SK-MEL-3) [µg/mL]	TGI (SK-MEL-3) [ng/mL]	LC-50 (SK-MEL-3) [µg/mL]	GI-50 (NCI-460) [µg/mL]	TGI (NCI-460) [ng/mL]	LC-50 (NCI-460) [µg/mL]	GI-50 (SF-295) [µg/mL]	TGI (SF-295) [ng/mL]	LC-50 (SF-295) [µg/mL]	GI-50 (A498) [µg/mL]	TGI (A498) [ng/mL]	LC-50 (A498) [µg/mL]	GI-50 (OVCAR-3) [µg/mL]	TGI (OVCAR-3) [ng/mL]	LC-50 (OVCAR-3) [µg/mL]	GI-50 (KM20L2) [µg/mL]	TGI (KM20L2) [ng/mL]	LC-50 (KM20L2) [µg/mL]	ED-50 (P-388) [µg/mL]	human cancer cell line activity when compared with Dolastatin 10 (human cancer cell line)
[2S-[1[1R*(R*),2S*],2R*[1S*,2S*]]]-N,N-dimethyl-L-valyl-N-[2-methoxy-4-[2-[1-methoxy-2-methyl-3-oxo-3-[[2-(4-nitro-phenyl)-ethyl]amino]propyl]-1-pyrrolidinyl-1-(methylpropyl)-4-oxo butyl]-N-methyl-L-valineamide [Peptide 6b]	0.00012	1.3	> 0.01	0.00028	1.2	> 0.01	0.00035	> 10	> 0.01	0.00064	> 10	> 0.01	0.00024	0.65	> 0.01	0.0003	1.3	> 0.01	0.0459	
R-Doe-isodolastatin 10																				does not result in any significant difference
[2S-[1 [1R*(R*),2S*],2R*[1S*,2S*]]]-N,N-dimethyl-L-valyl-N-[2-methoxy-4-[2-[1-methoxy-2-methyl-3-oxo-3-[[2-(4-bromo-phenyl)-ethyl]amino]propyl]-1-pyrrolidinyl-l-(methylpropyl)-4-oxo butyl]-N-methyl-L-valineamide [Peptide 6e]	0.00038	> 10	> 0.01	0.00027	1.2	> 0.01	0.00043	> 10	> 0.01	0.00046	> 10	> 0.01	0.00015	0.5	0.0094	0.00032	4.1	> 0.01	0.00515	
[2S-[1 [1R*(R*),2S*],2R*[1S*, 2S*]]]-N,N-dimethyl-L-valyl-N-[2-methoxy-4-[2-[1-methoxy-2-methyl-3-oxo-3- [[2-(4-chlor-phenyl)-etthyl]amino]propyl]-1-pyrrolidinyl-1-(methylpropyl)-4-oxo butyl]-N-methyl-L-valineamide [Peptide 6d]	0.000044	> 10	> 0.0001	0.000025	0.14	> 0.0001	0.000046	> 10	> 0.0001	0.000059	2.8	> 0.0001	0.000016	0.05	0.00096	0.00033	2.9	> 0.0001	0.00372	
